# Experimental data as given in article PMC4432651, “Dynamic interplay between catalytic and lectin domains of GalNAc-transferases modulates protein O-glycosylation” (Nature Communications, 2015).
# Where a SMILES comes first, the peptide text is derived from it. The star is where a group is joined. αGalNAc = CC(=O)N[C@@H]1[C@@H](O)[C@@H](O)[C@@H](CO)O[C@@H]1*
# What was measured:
# [1] = target: T1, GalNAc-T2 (Homo sapiens, UniProt Q10471); assay: SAXS with Ensemble Optimization Method: GalNAc-T2 conformations/oligomers with ligands; details: for Rg from p(r) (GNOM) / Dmax / Rg (Guinier): GalNAc-T2 5 mg/ml, 25 mM TRIS pH 7.5, 10 mM MnCl2, 10 °C; for Dmax: maximum intramolecular distance, GNOM; as to Dmax: values in Å; as to Rg (Guinier): values in Å; as to Rg from p(r) (GNOM): values in Å
# T1 construct: made in house
# Procedure: SAXS measurements were performed at the European Molecular Biology Laboratory on the storage ring PETRA-III (DESY-Hamburg) on the P12 beamline equipped with a robotic sample changer and a PILATUS-2M. The analysis of the SAXS data was performed by using the EOM[31]. Additional details are in Supplementary Methods. […]
# Small-angle X-ray scattering (SAXS) and data analysis
# All experiments were performed in a buffer consisting of 25 mM TRIS pH 7.5, 10 mM MnCl2. The first set of experiments contained three different protein concentrations: 10 mg/ml (180 µM), 5 mg/ml (90 µM), 2.5 mg/ml (45 µM) and 1 […]
# mg/ml (18 µM). The protein was measured alone and in the presence of ten times molar excess of UDP, UDP-GalNAc, UDP-EA2 peptide, MUC5AC-13, UDP-MUC5AC-13, MUC5AC, and UDP-MUC5AC. The second set of experiments was carried out with the protein concentration fixed at 5 mg/ml, and increasing concentrations of UDP (450 µM, 900 µM, 1.8 mM, 4.5 mM and 9 mM). The concentration of MUC5AC-13 was also changed as follows: 1 mM, 5 mM and 7.5 […]
# Synchrotron SAXS measurements were performed at the European Molecular
# Biology Laboratory (EMBL) on the storage ring PETRA-III (DESY-Hamburg) on the P12 beamline equipped with a robotic sample changer and a PILATUS-2M. The sample-detector distance was 3.1 m. The scattering intensity, I(s), was recorded at 10 °C in a momentum transfer range of 0.007<s<0.444 Å -1, where s = (4πsinθ )/λ , 2θ is the scattering angle, and λ = 1.24 Å is the X-ray wavelength. Twenty consecutive 0.05 second measurements were performed for protein samples and buffers to monitor for radiation damage that were subsequently averaged (no systematic radiation effects were observed). Buffer scattering profiles were subtracted from the sample ones using standard procedures 8. The values of the forward scattering, I(0), and radii of gyration, Rg, were calculated from the experimental SAXS patterns using Guinier’s approximation (Supplementary Fig. 4 and 5), I(s) = I(0)exp(-s2Rg2/3), which is valid in the range sRg < 1.3.
# Structural analysis of the SAXS data was performed using the Ensemble Optimization Method (EOM)9. A pool of 10,000 monomeric structures of GalNac-T2 was constructed with the program RanCh9 by connecting three-dimensional structures of the catalytic and the lectin domains, extracted from the crystallographic structure 2FFU, with a flexible linker of 12 residues with random coil conformations. To […]
# properly describe the data, these monomeric ensembles were enriched with 100 equivalent curves corresponding to one dimeric arrangement. As we tested three dimers, we built three different ensembles with the same 10,000 monomeric conformations and 100 copies of each one of the dimers. The three different dimers used for SAXS are shown in Supplementary Fig. 3c and correspond to three different crystal structures obtained under different conditions.
# The scattering profiles of all members of the pool were computed with the program CRYSOL using standard parameters10. The pool of structures/profiles was submitted to the genetic algorithm (GA) with the aim to select a subensemble of 50 structures/curves with the capacity to collectively describe the experimental SAXS […]
# was repeated 200 times starting from different randomly selected subensembles, and the resulting solutions were analysed together. The same pool was used to describe all the measured data. Results were quantitatively analysed by displaying the Rg distributions of the selected ensembles and the relative population of monomeric and dimeric species.
# Three different dimeric arrangements were introduced individually in the pool. In all three cases the dimers display similar contacts between the lectin domains and the lectin domain of one monomer with the catalytic domain of a second monomer (Supplementary Fig. 3c). We can distinguish the crystallographic dimers by the buried area parameter inferred from the PISA server. The dimers present in the crystal structure of GalNAc-T2-UDP complex (PDB entry 2FFV) are the most compact ones […]
# [2] = target: T1, GalNAc-T2; assay: X-ray crystal structures of GalNAc-T2 complexes; format: binding; as to Rg of crystal complex: values in Å
# Procedure: In all cases, crystals were grown by hanging drop vapour diffusion at 18 °C. […] The protein solution consisting of 3.5 mg ml^−1 of GalNAcT-2, 5 mM UDP, 5 mM MnCl2 and 6 mM MUC5AC-13 in the same buffer described above was mixed with the precipitant solution containing 1.6 M ammonium sulfate, 100 mM sodium chloride and 100 mM HEPES (pH 7). The crystals were cryoprotected in saturated lithium sulfate and frozen in a nitrogen gas stream cooled to 100 K.
# All data were processed and scaled using the XDS package[34] and CCP4 software. The crystal structures were solved by molecular replacement with Phaser[35] and using the PDB entry 4D0T as the template. Initial phases were further improved by cycles of manual model building in Coot[36] and refinement with REFMAC5 (ref. [37]). The AUs of the tetragonal crystals contain 1 molecule of GalNAc-T2 (Fig. 1). Coordinates and structure factors have been deposited in the Worldwide Protein Data Bank (wwPDB, and see Table 1 for the pdb codes).
# [3] = target: T1, GalNAc-T2; details: cited from earlier work
# Source text: Among other conclusions it was reported that the glycosylation ...
# [4] = ligand molar ratio GalNAc-T2:ligand 1:10
# [5] = ligand molar ratio GalNAc-T2:ligand 1:20
# T1 sequence (Q10471 75-571 limits assumed): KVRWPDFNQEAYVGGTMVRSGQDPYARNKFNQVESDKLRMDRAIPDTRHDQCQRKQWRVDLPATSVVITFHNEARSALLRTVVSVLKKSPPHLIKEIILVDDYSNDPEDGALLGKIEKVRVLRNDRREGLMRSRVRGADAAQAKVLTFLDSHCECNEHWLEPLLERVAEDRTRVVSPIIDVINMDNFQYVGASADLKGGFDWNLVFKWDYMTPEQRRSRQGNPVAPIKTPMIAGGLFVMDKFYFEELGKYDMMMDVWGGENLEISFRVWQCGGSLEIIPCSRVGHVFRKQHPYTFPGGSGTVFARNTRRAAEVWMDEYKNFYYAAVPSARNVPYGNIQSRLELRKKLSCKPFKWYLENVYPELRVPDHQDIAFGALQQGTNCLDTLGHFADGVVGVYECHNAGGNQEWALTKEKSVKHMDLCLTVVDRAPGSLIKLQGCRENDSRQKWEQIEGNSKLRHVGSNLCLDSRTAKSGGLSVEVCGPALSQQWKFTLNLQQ
SMILES,"effect on GalNAc-T2 dimers (in words) ([1]; GalNAc-T2 fixed at 5 mg ml−1, increasing concentrations of peptide)",Rg from p(r) (GNOM) ([1]; ligand molar ratio 1:10) [Å],Dmax ([1]; ligand molar ratio 1:10) [Å],Rg from p(r) (GNOM) ([1]; ligand molar ratio 1:20) [Å],Dmax ([1]; ligand molar ratio 1:20) [Å],"Rg (Guinier) [1, 4] [Å]","Rg (Guinier) [1, 5] [Å]",Rg (Guinier) ([1]; peptide + UDP (1:10)) [Å],Rg from p(r) (GNOM) ([1]; peptide + UDP (1:10)) [Å],Dmax ([1]; peptide + UDP (1:10)) [Å],Rg of crystal complex ([2]; GalNAc-T2-UDP-MUC5AC-13 complex) [Å],"form of GalNAc-T2 bound in crystal ([2]; co-crystallization with UDP and Mn+2, flexible loop conformation)","optimal glycosylation site ([3]; prior glycosylated site Thr13, ref 1 (supplement))",glycosylation of further sites Ser5 and Thr9 ([3]; ref 1 (supplement)),Rg from p(r) (GNOM) ([1]; ligand molar ratio 1:5) [Å],Dmax ([1]; ligand molar ratio 1:5) [Å],Rg from p(r) (GNOM) ([1]; ligand molar ratio 1:50) [Å],Dmax ([1]; ligand molar ratio 1:50) [Å],Rg (Guinier) ([1]; ligand molar ratio GalNAc-T2:ligand 1:5) [Å],Rg (Guinier) ([1]; ligand molar ratio GalNAc-T2:ligand 1:50) [Å]
CC(=O)NCC(=O)N[C@H](C(=O)N[C@H](C(=O)N1CCC[C@H]1C(=O)N[C@@H](CO)C(=O)N1CCC[C@H]1C(=O)N[C@H](C(=O)N1CCC[C@H]1C(=O)N[C@H](C(=O)N[C@H](C(=O)N[C@@H](CO)C(=O)N[C@H](C(=O)N[C@H](C(=O)N[C@@H](CO)C(=O)N[C@@H](C)C(N)=O)[C@@H](C)O[C@H]1O[C@H](CO)[C@H](O)[C@H](O)[C@H]1NC(C)=O)[C@@H](C)O)[C@@H](C)O)[C@@H](C)O)C(C)C)[C@@H](C)O)[C@@H](C)O [MUC5AC-13] (Ac-GTTPSPVPTTSTT(αGalNAc)SA-NH2; N-terminus assumed),dimers almost disappear from solution,30.6,112,29.2,102,30.2±0.2,29.1±0.1,30.7±0.4,31.7,112,26.41,bound to an active form of GalNAc-T2,optimally 10 residues N-terminal (Thr3),not in an efficient manner,–,–,–,–,–,–
"O=c1ccn([C@@H]2O[C@H](COP(=O)(O)OP(=O)(O)O)[C@@H](O)[C@H]2O)c(=O)[nH]1 [UDP, uridine diphosphate, reference compound]",–,35.0,123,34.5,122,34.4±0.3,34.0±0.2,–,–,–,–,–,–,–,34.3,121,36.0,129,32.7±0.3,36.0±0.3
